{"source": "patent US10080761B2", "about": "“Method for treating recurring skin and mucous membrane diseases caused by HSV-1 and HSV-2” (priority 2013, dated 2018)", "tested_on": "HSV-1 or HSV-2 infection", "assay": "Treatment of a herpes relapse in patients with medium or severe recurring form (Example 1)", "format": "in vivo", "settings": "many years of earlier treatment, cream and pills"}
{"smiles": "Nc1nc2c(ncn2COCCO)c(=O)[nH]1", "note": "[Aciclovir]", "values": [{"measurement": "reduction of the number of relapses by previously used preparations", "value": "did not reduce the number of relapses"}]}
